As usually defined, the IC50 is the concentration that inhibits the measured activity by half.

Drawing on US10800725B2, “Arylpropionyl-triketone antibacterial agents” (priority 2010, dated 2020), this text covers IC50 and MIC for 11 compounds.

In brackets after ≈: the same amount, converted by molar mass.

Test [1] deals with E. coli RNA polymerase σ70 holoenzyme (Escherichia coli (strain K12), UniProt P0A8T7+P0A8V2). The experiment in a line: Fluorescence-detected RNA polymerase assay, E. coli RNAP. The format is biochemical. The protocol:
(§1) Fluorescence-detected RNA polymerase assays with E. coli RNA polymerase were performed by a modification of the procedure of Kuhlman et al., 2004 [Kuhlman, P., Duff, H. & Galant, A. (2004) A fluorescence-based assay for multisubunit DNA-dependent RNA polymerases. Anal. Biochem. 324, 183-190]. Reaction mixtures contained (20 μl): 0-100 nM test compound, 75 nM E. coli RNA polymerase σ^70 holoenzyme, 20 nM 384 bp DNA fragment containing the bacteriophage T4 N25 promoter, 100 μM ATP, 100 μM GTP, 100 μM UTP, 100 μM CTP, 50 mM Tris-HCl, pH 8.0, 100 mM KCl, 10 mM MgCl2, 1 mM DTT, 10 μg/ml bovine serum albumin, and 5.5% glycerol. Reaction components other than DNA and NTPs were pre-incubated for 10 min at 37° C. Reactions were carried out by addition of DNA and incubation for 5 min at 37° C., followed by addition of NTPs and incubation for 60 min at 37° C. DNA was removed by addition of 1 μl 5 mM CaCl2 and 2 U DNaseI (Ambion, Inc.), followed by incubation for 90 min at 37° C. RNA was quantified by addition of 100 μl RiboGreen RNA Quantitation Reagent (Invitrogen, Inc.; 1:500 dilution in Tris-HCl, pH 8.0, 1 mM EDTA), followed by incubation for 10 min at 25° C., followed by measurement of fluorescence intensity [excitation wavelength=485 nm and emission wavelength=535 nm; QuantaMaster QM1 spectrofluorometer (PTI, Inc.)]. IC50 is defined as the concentration of inhibitor resulting in 50% inhibition of RNA polymerase activity.

The target of test [2] is M. tuberculosis RNA polymerase core enzyme + σA (Mycobacterium tuberculosis (strain ATCC 25618 / H37Rv), UniProt P9WGY7+P9WGY9). Put plainly: Fluorescence-detected RNA polymerase assay, M. tuberculosis RNAP. The format is biochemical. The protocol: as §1
Fluorescence-detected RNA polymerase assays with M. tuberculosis RNA polymerase were performed as in Example 21.1, using reaction mixtures containing (20 μl): 0-100 nM test compound, 75 nM M. tuberculosis RNA polymerase core enzyme, 300 nM M. tuberculosis σ^A, 20 nM 384 bp DNA fragment containing the bacteriophage T4 N25 promoter, 100 μM ATP, 100 μM GTP, 100 μM UTP, 100 μM CTP, 40 mM Tris-HCl, pH 8.0, 80 mM NaCl, 5 mM MgCl2, 2.5 mM DTT, and 12.7% glycerol. IC50 is defined as the concentration of inhibitor resulting in 50% inhibition of RNA polymerase activity.

Test [3] addresses S. aureus RNA polymerase core enzyme + σA (Staphylococcus aureus (strain NCTC 8325 / PS 47), UniProt P47768+Q2G0N5). The experiment in a line: Fluorescence-detected RNA polymerase assay, S. aureus RNAP. Format: biochemical. On the procedure:
as §1
Fluorescence-detected RNA polymerase assays with S. aureus RNA polymerase were performed as in Example 21.1, using reaction mixtures containing (20 μl): 0-100 nM test compound, 75 nM S. aureus RNA polymerase core enzyme, 300 nM S. aureus σ^A, 20 nM 384 bp DNA fragment containing the bacteriophage T4 N25 promoter, 100 μM ATP, 100 μM GTP, 100 μM UTP, 100 μM CTP, 40 mM Tris-HCl, pH 8.0, 80 mM NaCl, 5 mM MgCl2, 2.5 mM DTT, and 12.7% glycerol. IC50 is defined as the concentration of inhibitor resulting in 50% inhibition of RNA polymerase activity.

Test [4] has as its system Bacillus anthracis Vollum-1b. The experiment in a line: microbe, parasite or virus in culture. Format: cell-based. The settings on record: VOLLUM1B, read-out: MIC B. anthracis Vollum-1b.
For test [5], the system named is Francisella tularensis SCHU4. Put plainly: microbe, parasite or virus in culture. Format: cell-based. The settings on record: SCHU4, read-out: MIC F. tularensis SCHU4.
The subject of test [6] is Mycobacterium tuberculosis H37Rv. Put plainly: MIC, microplate Alamar Blue assay. The following applies: read-out: MIC M. tuberculosis H37Rv. For orientation: Alamar Blue is a resazurin reagent that responds to reducing activity.
The test system of test [7] is Staphylococcus aureus ATCC 12600. Put plainly: MIC, spiral gradient endpoint assay. The settings on record: ATCC12600, read-out: MIC S. aureus 12600.
For test [8], the system named is Enterococcus faecalis ATCC 19433. Put plainly: MIC, spiral gradient endpoint assay. The following applies: ATCC19433, read-out: MIC E. faecalis 19433.
The test system of test [9] is Escherichia coli D21f2tolC. The experiment in a line: MIC, spiral gradient endpoint assay. The settings on record: read-out: MIC E. coli D21f2tolC.
The test system of test [10] is Streptococcus pneumoniae ATCC 49619. The experiment in a line: MIC, spiral gradient endpoint assay (GC II agar, 5% CO2). The following applies: ATCC49619, read-out: MIC S. pneumoniae 49619.
Test [11] concerns Streptococcus pyogenes ATCC 12344. The test is described as above. The settings on record: ATCC12344, read-out: MIC S. pyogenes 12344.
The test system of test [12] is Moraxella catarrhalis ATCC 25238. The test is described as above. The settings on record: ATCC25238, read-out: MIC M. catarrhalis 25238.

Regarding `CC(C)CCC1=C(O)C(CCC(C)C)(CCC(C)C)C(=O)C(C(=O)CCc2ccc(Cl)cc2)=C1O` [Compound 3, 3,5-dihydroxy-2-(3-(4-chlorophenyl)propanoyl)-4,6,6-triisopentylcyclohexa-2,4-dienone], the IC50 in test [1] stood at 630 nM; in test [2], 770 nM; in test [3] it was 2400 nM. Further, the MIC in test [4] is 0.049 µg/mL (≈ 0.0974 µM); in test [5], over 50 µg/mL; in [6] it was 50 µg/mL (≈ 99.4 µM); in [7], 0.4 µg/mL (≈ 0.795 µM); in [8], 1 µg/mL (≈ 1.99 µM); in test [9] it was 8 µg/mL (≈ 15.9 µM). In addition, the MIC in test [10], in test [11] and in [12] was 19 µg/mL (≈ 37.8 µM) throughout.
With `COc1cccc(CCC(=O)C2=C(O)C(CCC(C)C)=C(O)C(CCC(C)C)(CCC(C)C)C2=O)c1` [Compound 5, 3,5-dihydroxy-2-(3-(3-methoxyphenyl)propanoyl)-4,6,6-triisopentylcyclohexa-2,4-dienone], the IC50 in test [1] worked out at 1100 nM; in test [2], 1100 nM; in test [3] it was 3100 nM. Further, the MIC in test [4] is 0.049 µg/mL (≈ 0.0983 µM); in [5], 1.56 µg/mL (≈ 3.13 µM); in [6] it was 50 µg/mL (≈ 100 µM); in test [7], 0.4 µg/mL (≈ 0.802 µM); in test [8], 2 µg/mL (≈ 4.01 µM); in test [9], 2 µg/mL (≈ 4.01 µM). The MIC came out at 3.5 µg/mL (≈ 7.02 µM) in [10], 7.1 µg/mL (≈ 14.2 µM) in test [11] and 19 µg/mL (≈ 38.1 µM) in test [12].
With `CC(C)CCC1=C(O)C(CCC(C)C)(CCC(C)C)C(=O)C(C(=O)CCc2ccc(F)cc2)=C1O` [Compound 10, 3,5-dihydroxy-2-(3-(4-fluorophenyl)propanoyl)-4,6,6-triisopentylcyclohexa-2,4-dienone], the figures for the IC50 in test [1], in [2] and in test [3] were 530 nM, 640 nM and 2200 nM, respectively. Moreover, the MIC in test [6] stood at 50 µg/mL (≈ 103 µM); in test [7], 0.5 µg/mL (≈ 1.03 µM); in test [8], 2.7 µg/mL (≈ 5.55 µM); in [9], 2.7 µg/mL (≈ 5.55 µM).
As to `Cc1ccccc1CCC(=O)C1=C(O)C(CCC(C)C)=C(O)C(CCC(C)C)(CCC(C)C)C1=O` [Compound 7, 3,5-dihydroxy-2-(3-(2-methylphenyl)propanoyl)-4,6,6-triisopentylcyclohexa-2,4-dienone], the IC50 in test [1] was 210 nM; in test [2], 170 nM; in test [3], 1100 nM. Further, the MIC was 50 µg/mL (≈ 104 µM) in test [6], 0.5 µg/mL (≈ 1.04 µM) in test [7], 1 µg/mL (≈ 2.07 µM) in test [8] and 7 µg/mL (≈ 14.5 µM) in test [9].
On to `CCCC1=C(O)C(CCC)(CCC)C(=O)C(C(=O)CCc2ccc(Cl)cc2)=C1O` [Compound 13, 3,5-dihydroxy-2-(3-(4-chlorophenyl)propanoyl)-4,6,6-tripropylcyclohexa-2,4-dienone], for which the values for the IC50 in test [1], in test [2] and in test [3] were 7800 nM, 1400 nM and 5300 nM, respectively. Besides, the MIC in test [6] was over 50 µg/mL; in test [7] it was 0.7 µg/mL (≈ 1.67 µM); in test [8], 2.2 µg/mL (≈ 5.25 µM); in [9] it was 0.8 µg/mL (≈ 1.91 µM).
On to `COc1ccc(CCC(=O)C2=C(O)C(CCC(C)C)=C(O)C(CCC(C)C)(CCC(C)C)C2=O)cc1` [Compound 6, 3,5-dihydroxy-2-(3-(4-methoxyphenyl)propanoyl)-4,6,6-triisopentylcyclohexa-2,4-dienone], for which the IC50 was 1800 nM in test [1], 1200 nM in test [2] and 3400 nM in test [3]. The MIC is 0.098 µg/mL (≈ 0.197 µM) in test [4]; over 50 µg/mL in test [5]; 50 µg/mL (≈ 100 µM) in test [6]; 0.6 µg/mL (≈ 1.2 µM) in test [7]; 12 µg/mL (≈ 24.1 µM) in test [8]; 6 µg/mL (≈ 12 µM) in test [9]. Also, the MIC in [10] amounted to 5.6 µg/mL (≈ 11.2 µM); in [11], 15 µg/mL (≈ 30.1 µM); in test [12] it was 19 µg/mL (≈ 38.1 µM).
`CC(C)CCC1=C(O)C(CCC(C)C)(CCC(C)C)C(=O)C(C(=O)CCc2ccc(Br)cc2)=C1O` [Compound 11, 3,5-dihydroxy-2-(3-(4-bromophenyl)propanoyl)-4,6,6-triisopentylcyclohexa-2,4-dienone]: the IC50 in test [1] came to 890 nM; in test [2], 780 nM; in [3] it was 3300 nM. Moreover, the MIC in test [6] was determined as 50 µg/mL (≈ 91.3 µM); in [7], 0.8 µg/mL (≈ 1.46 µM); in test [8] it was 2.6 µg/mL (≈ 4.75 µM); in test [9] it was 3.3 µg/mL (≈ 6.03 µM).
`CC(C)CCC1=C(O)C(CCC(C)C)(CCC(C)C)C(=O)C(C(=O)CCc2ccc(C(F)(F)F)cc2)=C1O` [Compound 12, 3,5-dihydroxy-2-(3-(4-trifluoromethylphenyl)propanoyl)-4,6,6-triisopentylcyclohexa-2,4-dienone]: the values for the IC50 in test [1], in test [2] and in test [3] were 120 nM, 220 nM and 460 nM, respectively. In addition, the MIC came out at 25 µg/mL (≈ 46.6 µM) in test [6], 0.6 µg/mL (≈ 1.12 µM) in test [7], 0.5 µg/mL (≈ 0.932 µM) in test [8] and 4.3 µg/mL (≈ 8.01 µM) in [9].
On to `CCCCC1=C(O)C(CCCC)(CCCC)C(=O)C(C(=O)CCc2ccc(Cl)cc2)=C1O` [Compound 14, 3,5-dihydroxy-2-(3-(4-chlorophenyl)propanoyl)-4,6,6-tributylcyclohexa-2,4-dienone], for which the IC50 in test [1] is 1100 nM; in [2], 680 nM; in test [3], 3100 nM. For the same compound, the MIC in [6] is over 50 µg/mL; in test [7], 0.5 µg/mL (≈ 1.08 µM); in [8], 1.3 µg/mL (≈ 2.82 µM); in test [9], 0.6 µg/mL (≈ 1.3 µM).
Turning to `Cc1ccc(CCC(=O)C2=C(O)C(CCC(C)C)=C(O)C(CCC(C)C)(CCC(C)C)C2=O)cc1` [Compound 9, 3,5-dihydroxy-2-(3-(4-methylphenyl)propanoyl)-4,6,6-triisopentylcyclohexa-2,4-dienone], the IC50 was 220 nM in [1], 290 nM in [2] and 840 nM in [3]. In addition, the MIC in test [6] is 25 µg/mL (≈ 51.8 µM); in test [7], 0.5 µg/mL (≈ 1.04 µM); in [8] it was 1 µg/mL (≈ 2.07 µM); in test [9], 4.4 µg/mL (≈ 9.12 µM).
On to `Cc1cccc(CCC(=O)C2=C(O)C(CCC(C)C)=C(O)C(CCC(C)C)(CCC(C)C)C2=O)c1` [Compound 8, 3,5-dihydroxy-2-(3-(3-methylphenyl)propanoyl)-4,6,6-triisopentylcyclohexa-2,4-dienone], for which the IC50 in test [1] is 420 nM; in test [2], 600 nM; in test [3], 2200 nM. Further, the MIC in test [6] is over 50 µg/mL; in test [7] it was 4 µg/mL (≈ 8.29 µM); in test [8], 1 µg/mL (≈ 2.07 µM); in test [9], 12 µg/mL (≈ 24.9 µM).
